From ChEMBL document CHEMBL5236599, “Design, synthesis and biological evaluation of cajanonic acid A analogues as potent PPAR γ antagonists” (Bioorg Med Chem Lett, 2023)

Key:
[1] = target: T1, Peroxisome proliferator-activated receptor gamma (Homo sapiens, UniProt P37231); experiment: Displacement of Fluormone Pan-PPAR Green from human recombinant GST-tagged PPARgamma LBD (201 to 475 residues) expressed in insect cells incubated for 2 hrs in dark by LantahScreen TR-FRET assay
T1 sequence (P37231 whole entry): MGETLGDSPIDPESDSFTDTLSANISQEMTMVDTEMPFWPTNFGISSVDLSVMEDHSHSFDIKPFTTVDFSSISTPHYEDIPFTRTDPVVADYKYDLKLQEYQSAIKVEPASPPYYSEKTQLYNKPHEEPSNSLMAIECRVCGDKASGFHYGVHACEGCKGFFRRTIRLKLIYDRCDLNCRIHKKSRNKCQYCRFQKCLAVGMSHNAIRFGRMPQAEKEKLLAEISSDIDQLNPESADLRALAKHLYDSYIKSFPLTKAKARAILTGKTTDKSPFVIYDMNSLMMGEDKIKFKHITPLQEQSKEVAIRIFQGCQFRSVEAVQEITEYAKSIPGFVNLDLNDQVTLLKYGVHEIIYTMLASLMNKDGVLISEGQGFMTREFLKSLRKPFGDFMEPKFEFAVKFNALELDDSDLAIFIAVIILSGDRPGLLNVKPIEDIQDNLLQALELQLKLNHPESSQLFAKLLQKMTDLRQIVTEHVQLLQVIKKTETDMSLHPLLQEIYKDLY

[2] = target: T2, Peroxisome proliferator-activated receptor gamma (Homo sapiens) (UniProt P37231); experiment: Antagonist activity at PPAR-gamma (unknown origin) transfected in human HEK293 cells assessed as decrease in rosiglitazone-induced receptor transactivation at 10 uM by dual-luciferase reporter gene assay relative to control; assay type: cell-based; conditions: filed as antagonist
T2 sequence (whole entry): T1 sequence (P37231 whole entry)

[3] = target: T2, Peroxisome proliferator-activated receptor gamma (Homo sapiens); experiment: Antagonist activity at PPAR-gamma (unknown origin) transfected in human HEK293 cells assessed as decrease in rosiglitazone-induced receptor transactivation at 1 uM by dual-luciferase reporter gene assay relative to control; assay type: cell-based; conditions: filed as antagonist
[4] = Induction of insulin-sensitizing activity in insulin-resistant human HepG2 cells assessed as increase in glucose consumption at 0.1 uM relative to control; assay type: functional
[5] = Induction of insulin-sensitizing activity in insulin-resistant human HepG2 cells assessed as glucose consumption at 0.1 uM (reference value: 5.83 +/-0.101 mM); assay type: functional
[6] = Induction of insulin-sensitizing activity in insulin-resistant mouse 3T3-L1 cells assessed as glucose consumption at 0.1 uM (reference value: 3.354 +/- 0.342 mM); assay type: functional
[7] = Induction of insulin-sensitizing activity in insulin-resistant mouse 3T3-L1 cells assessed as increase in glucose consumption at 0.1 uM relative to control; assay type: functional
[8] = Induction of insulin-sensitizing activity in insulin-resistant mouse 3T3-L1 cells assessed as increase in glucose consumption at 0.1 uM relative to rosiglitazone; assay type: functional
[9] = target: T3, Peroxisome proliferator-activated receptor gamma (Mus musculus, UniProt P37238); experiment: Agonist activity at PPAR-gamma in mouse 3T3-L1 cells assessed as increase in adipogenesis by measuring increase in oil red staining at 1 uM by Oil-red O staining based analysis relative to control; assay type: toxicity, cell-based; conditions: 3t3-l1, 1 µM
T3 sequence (P37238 whole entry): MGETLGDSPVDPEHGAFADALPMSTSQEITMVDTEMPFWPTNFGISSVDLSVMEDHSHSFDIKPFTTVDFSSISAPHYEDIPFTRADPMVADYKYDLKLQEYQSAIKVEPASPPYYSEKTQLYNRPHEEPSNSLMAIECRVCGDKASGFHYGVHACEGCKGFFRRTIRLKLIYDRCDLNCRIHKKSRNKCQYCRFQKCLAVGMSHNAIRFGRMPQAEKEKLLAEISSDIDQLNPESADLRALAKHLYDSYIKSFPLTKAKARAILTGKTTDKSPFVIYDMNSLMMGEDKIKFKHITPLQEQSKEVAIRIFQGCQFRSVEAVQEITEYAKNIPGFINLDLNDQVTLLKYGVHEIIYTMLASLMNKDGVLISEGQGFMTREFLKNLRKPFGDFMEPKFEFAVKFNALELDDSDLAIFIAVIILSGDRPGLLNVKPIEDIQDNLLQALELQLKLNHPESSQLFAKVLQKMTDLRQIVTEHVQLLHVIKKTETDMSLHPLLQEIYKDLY

Mus musculus = species on record: Mus musculus; experiment: Hypoglycemic activity in db/db mouse assessed as AUC of blood glucose level by oral glucose tolerance test (reference value: 114.8 mmol.min/L); assay type: functional

IC50 [1] [nM] | inhibition [2] [%] | inhibition [3] [%] | Compound | Activity [4] [%] | Activity [5] [mM] | Activity [6] [mM] | Activity [7] [%] | fold change (FC) [8] | Activity [9] [%] | AUC (Mus musculus) [mmol·min/L]
108 | – | – | Cc1c(C)n(Cc2ccc(C(C)(C)C(=O)O)cc2)c2ccc(C(=O)N[C@@H](C)c3cccc(C4CC4)c3)cc12 | – | – | – | – | – | – | –
– | 96.2 | 50.2 | COc1cc(O)c(C(=O)O)c(CC(=O)c2cccc(-c3ccccc3Cl)c2)c1CC=C(C)C | 33.27 | 7.771 | 6.471 | 72.61 | 1.6 | 7.04 | 106
